Molecules are shown by their SMILES. Values joined by “and” are separate entries in the source; they are usually repeats but may differ in a detail not shown here. Identical values can stand only once.

The results in this text go back to publication PMC9415509, “Pro-Apoptotic Antitumoral Effect of Novel Acridine-Core Naphthoquinone Compounds against Oral Squamous Cell Carcinoma” (Molecules, 2022).

Data set [1] has as its system OSCC cells (SCC-4, SCC-9, SCC-25). The data set can be described thus: MTT cytotoxicity and selectivity, mean over OSCC cell lines. It counts as cell-based, human. The method, then:
Cell viability assay (cytotoxicity) and compound stability assay. The viability of SCC cell lines and primary human fibroblast cells was evaluated using the MTT assay as in [48]. Briefly, the cells were grown in triplicates in 96-well plates (5 × 10^3 cells/well) until confluence. Then, the medium was removed, fresh medium was added, and the cells were returned to the incubator in the presence of different compounds. DMSO at the same concentrations was used as a 100% cell viability control. After 48 h, the cells were incubated with 5 mg/mL MTT reagent (3-(4,5-dimethyl-2-thiazolyl)-2,5-diphenyl-2-H-tetrazolium bromide) (Sigma-Aldrich Co., St. Louis, MO, USA) for 3.5 h. After that, formazan crystals were dissolved in MTT solvent solution (DMSO/methanol 1:1 v/v) and the absorbance at 560 nm was evaluated using an EPOCH microplate spectrophotometer (BioTek Instruments, Winooski, VT, USA) with the background absorbance at 670 nm subtracted.
Statistical analysis, IC50 calculation. The data are presented as means ±\SD. IC50 values for the MTT assays were obtained by nonlinear regression using the […] […] The selectivity index was calculated as SI = IC50 of the compound in normal oral fibroblast cells/IC50 of the same compound for each oral cancer cell line (SCC-4, SCC-9, and SCC-25) and the mean was calculated when indicated.

Another data set in a line: Hemolysis assay. The note with it: human, human erythrocytes, relative to triton x-100 = 100% lysis. It counts as cell-based. The procedure:
Hemolysis assay. To determine the surfactant power of substances in biological membranes, a hemolysis assay was performed using human blood approved by the Research Ethics Committee of Universidade Federal Fluminense (CAAE: 43134721.4.0000.5626). Erythrocytes were collected for centrifugation at 1500 rpm for 15 min, washed with PBS (phosphate-buffered saline) supplemented with 10 mM glucose, and counted in an automatic cell counter (Thermo Fisher, Waltham, MA, USA). Erythrocytes were then plated in 96-well plates at a concentration of 4 × 10^8 cells/well in triplicates, and 10 µL of compounds was added at a final concentration of 300 µM in PBS with glucose (final volume 100 µL). In total, 10 µL of PBS was used as a negative control and 10 µL of PBS with 0.1% Triton ×100 as a positive control. Data reading was performed with EPOCH (BioTek Instruments, Winooski, VT, USA) at an absorbance of 540 nm, and the statistical data were generated using the […] Prism 5.0 program (Intuitive Software for Science, San Diego, CA, USA).

By IC50 is commonly meant the midpoint of a concentration-inhibition curve. Low readings indicate inhibition by little substance, high ones a need for much substance. Regarding `CC1(C)CC(=O)C2=C(C1)NC1=C(C(=O)c3ccccc3C1=O)C2c1ccc(Cl)cc1Cl` (stereo not drawn) [4e, 12-(2,4-dichlorophenyl)-3,3-dimethyl-3,4-dihydrobenzo[b]acridine-1,6,11(2H,5H,12H)-trione], the 50% inhibitory concentration (IC50) in data set [1] (Homo sapiens, mean of SCC4, SCC9, SCC25) stood at 30 µM. For the same molecule, the “SI (mean selectivity index)” value in data set [1] (mean over OSCC cell lines vs normal fibroblasts) is 2.9 and 2.93. In addition, the hemolysis at 300 µM in “Hemolysis assay” was < 3%.
